Measurements from patent US11147272B2, “Pyridone compounds and agricultural and horticultural fungicides comprising the same as active ingredients” (MITSUI CHEMICALS AGRO, INC., priority 2017, dated 2021).

What was measured:
Alternaia brassicicola = assay: Test Example C: Alternaria sooty spot on cabbage; assay type: in vivo; details: Alternaria sooty spot on cabbage; control value class
Description: Seeds of a test plant (cabbage variety: Shikidori) were planted and cultivated until the cotyledons extended.
<Control Value> Control value=100{1−(n/3)}

Phytophthora infestans = assay: whole plant or invertebrate; assay type: in vivo; details: Late blight on tomato; control value class
[1] = test system: Colletotrichum orbiculare; assay: Test Example H: Anthracnose on cucumber; details: Anthracnose on cucumber; 250 ppm spray, 6 to 10 days after inoculation
Magnaporthe grisea = assay: whole plant or invertebrate; assay type: in vivo; details: Blast on rice; control value class
Plasmopara viticola = assay: Test Example G: Downy mildew on vine; details: Downy mildew on vine; 250 ppm spray, 7 to 10 days after inoculation
Botrytis cinerea = assay: Test Example B: Gray mold on tomato; details: Gray mold on tomato; control value class
[2] = test system: Blumeria graminis f. sp. hordei; assay: Test Example D: Powdery mildew on barley; details: Powdery mildew on barley; control value class
Puccinia recondita = assay: Test Example E: Brown rust on wheat; assay type: in vivo; details: Brown rust on wheat; control value class

Compound | Test C control value (Alternaia brassicicola) | Test F control value (Phytophthora infestans) | Test H control value [1] | Test A control value (Magnaporthe grisea) | Test G control value (Plasmopara viticola) | Test B control value (Botrytis cinerea) | Test D control value [2] | Test E control value (Puccinia recondita)
CCCc1cc(Br)c(=O)n(CC)c1-c1ccc(F)cc1Cl [compound 192] | H (more than 50% control value) | L (50% or less control value) | H (more than 50% control value) | H (more than 50% control value) | L (50% or less control value) | H (more than 50% control value) | H (more than 50% control value) | H (more than 50% control value)
CCn1c(-c2ccc(O)cc2)c(CC(C)C)ccc1=O [compound 193] | H (more than 50% control value) | L (50% or less control value) | L (50% or less control value) | L (50% or less control value) | L (50% or less control value) | L (50% or less control value) | L (50% or less control value) | L (50% or less control value)
CCn1c(-c2ccc(OC)cc2)c(CC(C)C)ccc1=O [compound 194] | L (50% or less control value) | L (50% or less control value) | L (50% or less control value) | H (more than 50% control value) | L (50% or less control value) | H (more than 50% control value) | H (more than 50% control value) | H (more than 50% control value)
CCn1c(-c2ccc(OC)cc2)c(CC(C)C)cc(Cl)c1=O [compound 195] | H (more than 50% control value) | L (50% or less control value) | H (more than 50% control value) | H (more than 50% control value) | L (50% or less control value) | H (more than 50% control value) | H (more than 50% control value) | H (more than 50% control value)
CCn1c(-c2ccc(OC)cc2)c(CC(C)C)cc(Br)c1=O [compound 196] | H (more than 50% control value) | L (50% or less control value) | H (more than 50% control value) | H (more than 50% control value) | L (50% or less control value) | H (more than 50% control value) | L (50% or less control value) | H (more than 50% control value)
C=C(c1cc(Cl)c(=O)n(CC)c1-c1c(F)cccc1F)C(C)C [compound 197] | H (more than 50% control value) | L (50% or less control value) | H (more than 50% control value) | H (more than 50% control value) | H (more than 50% control value) | H (more than 50% control value) | H (more than 50% control value) | H (more than 50% control value)
CCn1c(-c2c(F)cccc2F)c(C(C)C(C)C)cc(Cl)c1=O (stereo not shown) [compound 198] | H (more than 50% control value) | L (50% or less control value) | H (more than 50% control value) | H (more than 50% control value) | L (50% or less control value) | H (more than 50% control value) | H (more than 50% control value) | H (more than 50% control value)
CCn1c(-c2ccc(F)cc2Br)c(CC(C)C)ccc1=O [compound 199] | H (more than 50% control value) | H (more than 50% control value) | H (more than 50% control value) | H (more than 50% control value) | H (more than 50% control value) | H (more than 50% control value) | H (more than 50% control value) | H (more than 50% control value)
CCn1c(-c2ccc(F)cc2Br)c(CC(C)C)cc(Cl)c1=O [compound 200] | H (more than 50% control value) | H (more than 50% control value) | H (more than 50% control value) | H (more than 50% control value) | H (more than 50% control value) | H (more than 50% control value) | H (more than 50% control value) | H (more than 50% control value)
CCn1c(-c2ccc(F)cc2Br)c(CC(C)C)cc(Br)c1=O [compound 201] | H (more than 50% control value) | L (50% or less control value) | H (more than 50% control value) | H (more than 50% control value) | H (more than 50% control value) | H (more than 50% control value) | H (more than 50% control value) | H (more than 50% control value)
CCn1c(-c2ccc(F)cc2C)c(CC(C)C)ccc1=O [compound 202] | L (50% or less control value) | L (50% or less control value) | L (50% or less control value) | H (more than 50% control value) | H (more than 50% control value) | H (more than 50% control value) | H (more than 50% control value) | H (more than 50% control value)
CCn1c(-c2ccc(F)cc2C)c(CC(C)C)cc(Cl)c1=O [compound 203] | H (more than 50% control value) | H (more than 50% control value) | H (more than 50% control value) | H (more than 50% control value) | H (more than 50% control value) | H (more than 50% control value) | H (more than 50% control value) | H (more than 50% control value)
CCn1c(-c2ccc(F)cc2C)c(CC(C)C)cc(Br)c1=O [compound 204] | H (more than 50% control value) | L (50% or less control value) | H (more than 50% control value) | H (more than 50% control value) | H (more than 50% control value) | H (more than 50% control value) | H (more than 50% control value) | H (more than 50% control value)
CCCCc1ccc(=O)n(CC)c1-c1ccc(F)cc1Cl [compound 205] | H (more than 50% control value) | L (50% or less control value) | L (50% or less control value) | H (more than 50% control value) | H (more than 50% control value) | H (more than 50% control value) | H (more than 50% control value) | H (more than 50% control value)
CCCCc1cc(Cl)c(=O)n(CC)c1-c1ccc(F)cc1Cl [compound 206] | H (more than 50% control value) | H (more than 50% control value) | H (more than 50% control value) | H (more than 50% control value) | H (more than 50% control value) | H (more than 50% control value) | H (more than 50% control value) | H (more than 50% control value)
CCCCc1cc(Br)c(=O)n(CC)c1-c1ccc(F)cc1Cl [compound 207] | H (more than 50% control value) | L (50% or less control value) | H (more than 50% control value) | H (more than 50% control value) | H (more than 50% control value) | H (more than 50% control value) | H (more than 50% control value) | H (more than 50% control value)
CCCCc1ccc(=O)n(CC)c1-c1ccc(F)cc1Cl [compound 208] | H (more than 50% control value) | L (50% or less control value) | L (50% or less control value) | H (more than 50% control value) | L (50% or less control value) | H (more than 50% control value) | H (more than 50% control value) | H (more than 50% control value)
